Source: patent publication US10662182B2, “Microbiocidal thiazole derivatives” (SYNGENTA PARTICIPATIONS AG, priority 2016, dated 2020)

What was measured:
[1] = test system: Botrvotinia fuckeliana (Botrvtis cinerea); test: Botryotinia fuckeliana / liquid culture (gray mould); format: cell-based; conditions: Botrytis cinerea, 200 ppm in the formulation, inhibition of growth determined photometrically, compared to untreated checks, read-out: disease control
Protocol: Botrvotinia fuckeliana (Botrvtis cinerea)/Liquid Culture (Gray Mould) Conidia of the fungus from cryogenic storage are directly mixed into nutrient broth (Vogels broth). After placing a (DMSO) solution of test compound into a microtiter plate (96-well format), the nutrient broth containing the fungal spores is added. The test plates are incubated at 24° C. and the inhibition of growth is determined photometrically 3-4 days after application.

[2] = test system: Mycosphaerella raminicola (Septoria tritici); test: Mycosphaerella graminicola / liquid culture (Septoria blotch); format: cell-based; conditions: 200 ppm in the formulation, inhibition of growth determined photometrically, compared to untreated checks, read-out: disease control
Protocol: Mycosphaerella raminicola (Septoria tritici)/Liquid Culture (Septoria blotch) Conidia of the fungus from cryogenic storage are directly mixed into nutrient broth (PDB potato dextrose broth). After placing a (DMSO) solution of test compound into a microtiter plate (96-well format), the nutrient broth containing the fungal spores is added. The test plates are incubated at 24° C. and the inhibition of growth is determined photometrically 4 to 5 days after application.

[3] = test system: Glomerella lacenarium (Colletotrichum lacenarium); test: Glomerella lagenarium / liquid culture (anthracnose); format: cell-based; conditions: 200 ppm in the formulation, inhibition of growth measured photometrically, compared to untreated checks, read-out: disease control
Protocol: Glomerella lacenarium (Colletotrichum lacenarium)/Liquid Culture (Anthracnose) Conidia of the fungus from cryogenic storage are directly mixed into nutrient broth (PDB potato dextrose broth). After placing a (DMSO) solution of test compound into a microtiter plate (96-well format), the nutrient broth containing the fungal spores is added. The test plates are incubated at 24° C. and the inhibition of growth is measured photometrically 3 to 4 days after application.

[4] = test system: Monocraphella nivalis (Microdochium nivale); test: Monographella nivalis / liquid culture (foot rot cereals); format: cell-based; conditions: 200 ppm in the formulation, inhibition of growth determined photometrically, compared to untreated checks, read-out: disease control
Protocol: Monocraphella nivalis (Microdochium nivale)/Liquid Culture (Foot Rot Cereals) Conidia of the fungus from cryogenic storage are directly mixed into nutrient broth (PDB potato dextrose broth). After placing a (DMSO) solution of test compound into a microtiter plate (96-well format), the nutrient broth containing the fungal spores is added. The test plates are incubated at 24° C. and the inhibition of growth is determined photometrically 4-5 days after application.

[5] = test system: Blumeria graminis f. Sp. Tritici (Erysiphe graminis f. Sp. Tritici); test: Blumeria graminis f. sp. tritici / wheat / leaf disc preventative (powdery mildew on wheat); format: in vivo; conditions: foliar, 200 ppm in the formulation, wheat leaf segments cv. Kanzler, compared to untreated checks, read-out: disease control
Text: Blumeria graminis f. Sp. Tritici (Erysiphe graminis f. Sp. Tritici)/Wheat/Leaf Disc Preventative (Powdery Mildew on Wheat) Wheat leaf segments cv. Kanzler are placed on agar in a multiwell plate (24-well format) and sprayed with the test compound formulated with DMSO and Tween20 and diluted in water. The leaf disks are inoculated by shaking powdery mildew infected plants above the test plates 1 day after application.

[6] = test system: Mycosphaerella arachidis (Cercospora arachidicola); test: Mycosphaerella arachidis / liquid culture (early leaf spot); format: cell-based; conditions: 200 ppm in the formulation, inhibition of growth determined photometrically, compared to untreated checks, read-out: disease control
Protocol: Mycosphaerella arachidis (Cercospora arachidicola)/Liquid Culture (Early Leaf Spot) Conidia of the fungus from cryogenic storage are directly mixed into nutrient broth (PDB potato dextrose broth). After placing a (DMSO) solution of test compound into a microtiter plate (96-well format), the nutrient broth containing the fungal spores is added. The test plates are incubated at 24° C. and the inhibition of growth is determined photometrically 4-5 days after application.

[7] = test system: Puccinia recondita f. Sp. Tritici; test: Puccinia recondita f. sp. tritici / wheat / leaf disc preventative (brown rust); format: in vivo; conditions: foliar, 200 ppm in the formulation, wheat leaf segments cv. Kanzler, compared to untreated checks, read-out: disease control
[8] = test system: Pyrenophora teres; test: Pyrenophora teres / barley / leaf disc preventative (net blotch); format: in vivo; conditions: foliar, 200 ppm of the formulation, barley leaf segments cv. Hasso, compared to untreated checks, read-out: disease control
Protocol: Pyrenophora teres/Barley/Leaf Disc Preventative (Net Blotch) Barley leaf segments cv. Hasso are placed on agar in a multiwell plate (24-well format) and sprayed with the test compound formulated with DMSO and Tween20 and diluted in water. The leaf segments are inoculated with a spore suspension of the fungus 2 days after application. The inoculated leaf segments are incubated at 20° C. and 65% rh under a light regime of 12 h light/12 h darkness in a climate cabinet and the activity of a compound is assessed as disease control compared to untreated when an appropriate level of disease damage appears in untreated check leaf segments (5 to 7 days after application).

[9] = test system: Gaeumannomyces graminis; test: Gaeumannomyces graminis / liquid culture (take-all of cereals); format: cell-based; conditions: 200 ppm in the formulation, inhibition of growth determined photometrically, compared to untreated control, read-out: disease control
Protocol: Gaeumannomyces graminis/Liquid Culture (Take-All of Cereals) Mycelial fragments of the fungus from cryogenic storage were directly mixed into nutrient broth (PDB potato dextrose broth). After placing a (DMSO) solution of test compound into a microtiter plate (96-well format), the nutrient broth containing the fungal spores is added. The test plates are incubated at 24° C. and the inhibition of growth is determined photometrically 4-5 days after application.

[10] = test system: Magnaporthe risea (Pyricularia oryzae); test: whole plant or invertebrate; format: in vivo; conditions: foliar, read-out: disease control

CC(NC(=O)c1nc(Nc2cc(F)cc(F)c2)sc1Br)C1CCCCC1 (stereo not shown) [Compound I.e.2, 5-bromo-N-(1-cyclohexylethyl)-2-(3,5-difluoroanilino)thiazole-4-carboxamide]
≥ 80%: inhibition of growth at 200 ppm [1] | inhibition of growth at 200 ppm [2] | inhibition of growth at 200 ppm [3] | inhibition of growth at 200 ppm [4] | pest or weed control at 200 ppm [5] | inhibition of growth at 200 ppm [6] | pest or weed control at 200 ppm [7] | pest or weed control at 200 µg/mL [8] | inhibition of growth at 200 ppm [9]

Cc1sc(Nc2cc(F)cc(F)c2)nc1C(=O)NC(C)(C#N)C(C)C (stereo not shown) [Compound I.n.3, N-(1-cyano-1,2-dimethyl-propyl)-2-(3,5-difluoroanilino)-5-methyl-thiazole-4-carboxamide]
≥ 80%: inhibition of growth at 200 ppm [1] | inhibition of growth at 200 ppm [2] | inhibition of growth at 200 ppm [3] | inhibition of growth at 200 ppm [4] | pest or weed control at 200 ppm [5] | inhibition of growth at 200 ppm [6] | pest or weed control at 200 ppm [7] | inhibition of growth at 200 ppm [9] | pest or weed control at 200 ppm [10]

CC12CCCC(NC(=O)c3nc(Nc4cc(F)cc(F)c4)sc3Br)C1CC2 (stereo not shown) [I.ah.2, 5-bromo-2-(3,5-difluoroanilino)-N-(6-methyl-2-bicyclo[4.2.0]octanyl)thiazole-4-carboxamide]
≥ 80%: inhibition of growth at 200 ppm [1] | inhibition of growth at 200 ppm [2] | inhibition of growth at 200 ppm [3] | inhibition of growth at 200 ppm [4] | pest or weed control at 200 ppm [5] | pest or weed control at 200 ppm [7] | inhibition of growth at 200 ppm [9] | pest or weed control at 200 ppm [10]

Cc1sc(Nc2cc(F)cc(F)c2)nc1C(=O)NC1CCCC2(C)CCC12 (stereo not shown) [I.ah.3, 2-(3,5-difluoroanilino)-5-methyl-N-(6-methyl-2-bicyclo[4.2.0]octanyl)thiazole-4-carboxamide]
≥ 80%: inhibition of growth at 200 ppm [1] | inhibition of growth at 200 ppm [2] | inhibition of growth at 200 ppm [3] | inhibition of growth at 200 ppm [4] | inhibition of growth at 200 ppm [6] | inhibition of growth at 200 ppm [9]

Cc1sc(Nc2cc(F)cc(F)c2)nc1C(=O)NC(C)C1CCCCC1 (stereo not shown) [I.e.3, N-(1-cyclohexylethyl)-2-(3,5-difluoroanilino)-5-methyl-thiazole-4-carboxamide]
≥ 80%: inhibition of growth at 200 ppm [2] | inhibition of growth at 200 ppm [3] | inhibition of growth at 200 ppm [4] | pest or weed control at 200 ppm [5] | inhibition of growth at 200 ppm [6] | pest or weed control at 200 ppm [7] | pest or weed control at 200 µg/mL [8] | inhibition of growth at 200 ppm [9] | pest or weed control at 200 ppm [10]

O=C(NC1CCC12CCC2)c1nc(Nc2cc(F)cc(F)c2)sc1Br (stereo not shown) [I.r.2, 5-bromo-2-(3,5-difluoroanilino)-N-spiro[3.3]heptan-7-yl-thiazole-4-carboxamide]
≥ 80%: inhibition of growth at 200 ppm [1] | inhibition of growth at 200 ppm [2] | inhibition of growth at 200 ppm [3] | inhibition of growth at 200 ppm [4] | pest or weed control at 200 ppm [5] | inhibition of growth at 200 ppm [6] | pest or weed control at 200 ppm [7] | pest or weed control at 200 µg/mL [8] | inhibition of growth at 200 ppm [9] | pest or weed control at 200 ppm [10]

Cc1sc(Nc2cc(F)cc(F)c2)nc1C(=O)NC1CCC12CCC2 (stereo not shown) [I.r.3, 2-(3,5-difluoroanilino)-5-methyl-N-spiro[3.3]heptan-7-yl-thiazole-4-carboxamide]
≥ 80%: inhibition of growth at 200 ppm [1] | inhibition of growth at 200 ppm [2] | inhibition of growth at 200 ppm [3] | inhibition of growth at 200 ppm [4] | pest or weed control at 200 ppm [5] | inhibition of growth at 200 ppm [6] | pest or weed control at 200 ppm [7] | pest or weed control at 200 µg/mL [8] | inhibition of growth at 200 ppm [9] | pest or weed control at 200 ppm [10]

Cc1sc(Nc2cc(F)cc(F)c2)nc1C(=O)NC1CCC12CCCC2 (stereo not shown) [I.s.3, 2-(3,5-difluoroanilino)-5-methyl-N-spiro[3.4]octan-3-yl-thiazole-4-carboxamide]
≥ 80%: inhibition of growth at 200 ppm [2] | inhibition of growth at 200 ppm [3] | inhibition of growth at 200 ppm [4] | pest or weed control at 200 ppm [5] | inhibition of growth at 200 ppm [6] | pest or weed control at 200 ppm [7] | pest or weed control at 200 µg/mL [8] | inhibition of growth at 200 ppm [9] | pest or weed control at 200 ppm [10]

CC1(C)C2CCCC2C1NC(=O)c1nc(Nc2cc(F)cc(F)c2)sc1Br (stereo not shown) [I.y.2, 5-bromo-2-(3,5-difluoroanilino)-N-(6,6-dimethyl-7-bicyclo[3.2.0]heptanyl)thiazole-4-carboxamide]
≥ 80%: inhibition of growth at 200 ppm [1] | inhibition of growth at 200 ppm [2] | inhibition of growth at 200 ppm [3] | inhibition of growth at 200 ppm [4] | pest or weed control at 200 ppm [5] | inhibition of growth at 200 ppm [6] | pest or weed control at 200 ppm [7] | pest or weed control at 200 µg/mL [8] | inhibition of growth at 200 ppm [9] | pest or weed control at 200 ppm [10]

Cc1sc(Nc2cc(F)cc(F)c2)nc1C(=O)NC1C2CCCC2C1(C)C (stereo not shown) [I.y.3, 2-(3,5-difluoroanilino)-N-(6,6-dimethyl-7-bicyclo[3.2.0]heptanyl)-5-methyl-thiazole-4-carboxamide]
≥ 80%: inhibition of growth at 200 ppm [2] | inhibition of growth at 200 ppm [3] | inhibition of growth at 200 ppm [4] | pest or weed control at 200 ppm [5] | inhibition of growth at 200 ppm [6] | pest or weed control at 200 ppm [7] | inhibition of growth at 200 ppm [9] | pest or weed control at 200 ppm [10]
